Results taken from US12708116B2, “Herbicidal compositions comprising 2,4-D” (BASF SE, priority 2023, dated 2026).

What was measured:
Test in all cases: Post-emergence application in field trials
SETVI = type: in vivo, Setaria viridis; settings: 15 DAT; g ai/ha A-1 12.5, B-5 1066, C-10 840; growth stage 13-19; height 2-18 cm; water volume 140 l/ha
GLXMA = type: in vivo, Glycine max; settings: Example 4; 21 DAT; g ai/ha A-1 12.5, B-5 1066; growth stage 13; height 5-8 cm
AMATU = type: in vivo, Amaranthus tuberculatos; settings: 8 DAT; g ai/ha A-1 12.5, B-5 1066; growth stage 19; height 10-20 cm; water volume 140 l/ha
DATST = system: DATST
AMARE = type: in vivo, Amaranthus retroflexus; settings: 8 DAT; g ai/ha A-1 25, B-5 1066; growth stage 19; height 10-20 cm; water volume 140 l/ha
AMAPA = system: AMAPA
DIGSA = system: DIGSA
PORPI = type: in vivo; settings: 8 DAT; g ai/ha A-1 25, B-5 1066; height 2-8 cm; water volume 140 l/ha
HORVW = settings: growth stage 23-29, height 20-25 cm
ZEAMX = settings: growth stage 15-16
SETVE = settings: growth stage 21-23
ECHCG = type: in vivo, Echinochloa crus-galli
CYPES = settings: 21 DAT, water volume 140 l/ha

Q: With C[N+](C)(C)CCO.O=C([O-])COc1ccc(Cl)cc1Cl [B-5, 2,4-D choline] as the molecule, how does the “% Herbicidal activity” value (SETVI) read?
A: 27%

Q: And the “% Herbicidal activity” value (GLXMA)?
A: 55%

Q: And the “% Herbicidal activity” value (AMATU)?
A: 83%

Q: And the “% Herbicidal activity” value (DATST; Example 4, 7 DAT, g ai/ha A-1 12.5, B-5 1066)?
A: 35%

Q: And the “% Herbicidal activity” value (DATST; Example 6, 21 DAT, g ai/ha A-1 12.5, B-5 1066, C-11 400)?
A: 40%

Q: What about the “% Herbicidal activity” value (AMARE) of the same molecule?
A: 83%

Q: What about the “% Herbicidal activity” value (AMAPA; 13 DAT, g ai/ha A-1 25, B-5 1066, growth stage 16, height 15-25 cm, water volume 187 l/ha) of the same molecule?
A: 53%

Q: And the “% Herbicidal activity” value (AMAPA; 14 DAT, g ai/ha A-1 12.5, B-5 1066, C-10 840, growth stage 12-24, height 5-30 cm, water volume 140 l/ha)?
A: 66%

Q: What about the “% Herbicidal activity” value (AMAPA; 14 DAT, g ai/ha A-1 25, B-5 1066, C-10 840, growth stage 12-24, height 5-30 cm, water volume 140 l/ha) of the same molecule?
A: 66%

Q: And the “% Herbicidal activity” value (AMAPA; 19 DAT, g ai/ha A-1 12.5, B-5 1066, growth stage 16, height 15-25 cm, water volume 187 l/ha)?
A: 55%

Q: And the “% Herbicidal activity” value (AMAPA; 19 DAT, g ai/ha A-1 25, B-5 1066, growth stage 16, height 15-25 cm, water volume 187 l/ha)?
A: 55%

Q: What about the “% Herbicidal activity” value (AMAPA; 19 DAT, g ai/ha A-1 50, B-5 1066, growth stage 16, height 15-25 cm, water volume 187 l/ha) of the same molecule?
A: 55%

Q: What about the “% Herbicidal activity” value (AMAPA; 21 DAT, g ai/ha A-1 12.5, B-5 1066, growth stage 12-28, height 7-20 cm, water volume 140 l/ha) of the same molecule?
A: 63%

Q: What about the “% Herbicidal activity” value (AMAPA; 21 DAT, g ai/ha A-1 50, B-5 1066, height 5-23 cm, water volume 140 l/ha) of the same molecule?
A: 78%

Q: And the “% Herbicidal activity” value (DIGSA; 14 DAT, g ai/ha A-1 12.5, B-5 1066, height 2-8 cm, water volume 140 l/ha)?
A: 0%

Q: And the “% Herbicidal activity” value (DIGSA; 14 DAT, g ai/ha A-1 25, B-5 1066, height 2-8 cm, water volume 140 l/ha)?
A: 0%

Q: And the “% Herbicidal activity” value (DIGSA; 14 DAT, g ai/ha A-1 50, B-5 1066, height 2-8 cm, water volume 140 l/ha)?
A: 0%

Q: What about the “% Herbicidal activity” value (DIGSA; 15 DAT, g ai/ha A-1 12.5, B-5 1066, C-10 840, growth stage 13-19, height 2-13 cm, water volume 140 l/ha) of the same molecule?
A: 27%

Q: And the “% Herbicidal activity” value (DIGSA; 21 DAT, g ai/ha A-1 12.5, B-5 1066, C-11 655, height 2-8 cm, water volume 140 l/ha)?
A: 0%

Q: And the “% Herbicidal activity” value (DIGSA; 21 DAT, g ai/ha A-1 12.5, B-5 1066, height 2-8 cm, water volume 140 l/ha)?
A: 0%

Q: What about the “% Herbicidal activity” value (DIGSA; 21 DAT, g ai/ha A-1 25, B-5 1066, C-11 655, height 2-8 cm, water volume 140 l/ha) of the same molecule?
A: 0%

Q: What about the “% Herbicidal activity” value (DIGSA; 21 DAT, g ai/ha A-1 25, B-5 1066, height 2-8 cm, water volume 140 l/ha) of the same molecule?
A: 0%

Q: And the “% Herbicidal activity” value (DIGSA; 21 DAT, g ai/ha A-1 50, B-5 1066, C-11 655, height 2-8 cm, water volume 140 l/ha)?
A: 0%

Q: And the “% Herbicidal activity” value (DIGSA; 21 DAT, g ai/ha A-1 50, B-5 1066, height 2-8 cm, water volume 140 l/ha)?
A: 0%

Q: What about the “% Herbicidal activity” value (DIGSA; Example 6, 7 DAT, g ai/ha A-1 12.5, B-5 1066, C-11 400, growth stage 21-22, height 15-20 cm) of the same molecule?
A: 20%

Q: What about the “% Herbicidal activity” value (DIGSA; Example 6, 21 DAT, g ai/ha A-1 12.5, B-5 1066, C-11 400, growth stage 21-22, height 15-20 cm) of the same molecule?
A: 20%

Q: And the “% Herbicidal activity” value (PORPI)?
A: 50%

Q: And the “% Herbicidal activity” value (HORVW; Example 4, 21 DAT, g ai/ha A-1 12.5, B-5 1066)?
A: 0%

Q: And the “% Herbicidal activity” value (HORVW; Example 6, 28 DAT, g ai/ha A-1 12.5, B-5 1066, C-11 400)?
A: 0%

Q: What about the “% Herbicidal activity” value (HORVW; Example 8, 21 DAT, g ai/ha A-1 12.5, B-5 1066, C-12 252) of the same molecule?
A: 0%

Q: And the “% Herbicidal activity” value (HORVW; Example 10, 21 DAT, g ai/ha A-1 12.5, B-5 1066, C-4 12.5)?
A: 0%

Q: What about the “% Herbicidal activity” value (ZEAMX; Example 4, 7 DAT, g ai/ha A-1 18, B-5 1066, height 50-60 cm) of the same molecule?
A: 7%

Q: What about the “% Herbicidal activity” value (ZEAMX; Example 4, 21 DAT, g ai/ha A-1 12.5, B-5 1066, height 50-60 cm) of the same molecule?
A: 10%

Q: What about the “% Herbicidal activity” value (ZEAMX; Example 6, 7 DAT, g ai/ha A-1 12.5, B-5 1066, C-11 400, height 25-30 cm) of the same molecule?
A: 0%

Q: And the “% Herbicidal activity” value (ZEAMX; Example 6, 28 DAT, g ai/ha A-1 12.5, B-5 1066, C-11 400, height 50-60 cm)?
A: 0%

Q: And the “% Herbicidal activity” value (ZEAMX; Example 8, 28 DAT, g ai/ha A-1 12.5, B-5 1066, C-12 252, height 50-60 cm)?
A: 0%

Q: And the “% Herbicidal activity” value (SETVE; Example 4, 21 DAT, g ai/ha A-1 12.5, B-5 1066, height 8-16 cm)?
A: 25%

Q: And the “% Herbicidal activity” value (SETVE; Example 6, 7 DAT, g ai/ha A-1 12.5, B-5 1066, C-11 400, height 10-15 cm)?
A: 15%

Q: What about the “% Herbicidal activity” value (SETVE; Example 6, 21 DAT, g ai/ha A-1 12.5, B-5 1066, C-11 400, height 10-15 cm) of the same molecule?
A: 0%

Q: What about the “% Herbicidal activity” value (ECHCG; 13 DAT, g ai/ha A-1 12.5, B-5 1066, C-10 840, growth stage 21-26, height 15-30 cm, water volume 187 l/ha) of the same molecule?
A: 0%

Q: And the “% Herbicidal activity” value (ECHCG; 13 DAT, g ai/ha A-1 25, B-5 1066, C-10 840, growth stage 21-26, height 15-30 cm, water volume 187 l/ha)?
A: 0%

Q: And the “% Herbicidal activity” value (ECHCG; 13 DAT, g ai/ha A-1 50, B-5 1066, C-10 840, growth stage 21-26, height 15-30 cm, water volume 187 l/ha)?
A: 0%

Q: What about the “% Herbicidal activity” value (ECHCG; Example 4, 21 DAT, g ai/ha A-1 12.5, B-5 1066, growth stage 23-30, height 15-20 cm) of the same molecule?
A: 0%

Q: And the “% Herbicidal activity” value (ECHCG; Example 6, 7 DAT, g ai/ha A-1 12.5, B-5 1066, C-11 400, growth stage 23-30, height 15-20 cm)?
A: 0%

Q: What about the “% Herbicidal activity” value (ECHCG; Example 6, 28 DAT, g ai/ha A-1 12.5, B-5 1066, C-11 400, growth stage 23-30, height 15-20 cm) of the same molecule?
A: 0%

Q: What about the “% Herbicidal activity” value (ECHCG; Example 8, 7 DAT, g ai/ha A-1 12.5, B-5 1066, C-12 252, growth stage 23-30, height 15-20 cm) of the same molecule?
A: 0%

Q: What about the “% Herbicidal activity” value (ECHCG; Example 8, 21 DAT, g ai/ha A-1 12.5, B-5 1066, C-12 252, growth stage 23-30, height 15-20 cm) of the same molecule?
A: 0%

Q: What about the “% Herbicidal activity” value (ECHCG; Example 8, 28 DAT, g ai/ha A-1 12.5, B-5 1066, C-12 252, growth stage 23-30, height 15-20 cm) of the same molecule?
A: 0%

Q: What about the “% Herbicidal activity” value (ECHCG; Example 10, 21 DAT, g ai/ha A-1 12.5, B-5 1066, C-4 12.5, growth stage 23-30, height 15-20 cm) of the same molecule?
A: 0%

Q: What about the “% Herbicidal activity” value (CYPES; g ai/ha A-1 12.5, B-5 1066, C-11 655) of the same molecule?
A: 0%

Q: And the “% Herbicidal activity” value (CYPES; g ai/ha A-1 50, B-5 1066, C-11 655)?
A: 0%

Q: What about the “% Herbicidal activity” value (CYPES; g ai/ha A-1 50, B-5 1066) of the same molecule?
A: 0%
